Experimental data as given in patent EP1171107B1, “USE OF A PHARMACEUTICAL COMPOSITION IN THE MANUFACTURE OF A MEDICAMENT FOR THE TREATMENT OF PATHOLOGICAL CONDITIONS OF THE EYE CAUSED BY BACTERIA, VIRUSES, FUNGI, YEASTS AND PROTOZOA” (Dr. GERHARD MANN chem.-pharm. Fabrik GmbH, priority 1999, dated 2000).

How the values were obtained:
Assay type in all cases: cell-based
[1] = tested on: E.coli; assay: Quantitative germ count (re-isolation, surface method) after inoculating the test preparation; details: Ausgangskeimzahl 2,7 x 10^5 KBE/ml
Source text: (§1) Escherichia (E.coli) Staphylococcus (S.aureus) Streptococcus (Sc.) Pneumoniae Pseudomonas (P.aeruginosa) Staphylococcus (S. epidermidis) Haemophilus (H. influenzae)
(§2) Die verschiedenen Testkeime wurde jeweils aus einem Lyophilisat in NaCl-Peptonpuffer homogenisiert und auf Caseinpepton-Sojymehlpepton. (Caso-) Agar (Fa. bioMérieux; Art. Nr. 43019) bez. Kochblut-Agar (Fa. bioMérieux; Art. Nr. 43109) subkultiviert. Die Teststämme wurden vor Versuchsbeginn durch Erstellen eines biochemischen Profils mittels ATB/Vitek-System (Fa. bioMérieux, Nürtingen) auf Reinheit und Identität überprüft.
(§3) Die Ausgangskeimzahl wurde im Oberflächenverfahren mit Hilfe eines Spiralplaters (Fa. Meintrup, Lähden) ermittelt und ist im einzelnen den Tabellen 1-12 zu entnehmen.
(§4) Die verschiedenen Testsubstanzen a. bis j. wurden jeweils zu 5 ml in sterile Zentrifugenröhrchen abgefüllt und mit ca. 10^5 KBE^*/ml (* = koloniebildende Einheiten) der oben genannten Testkeime kontaminiert. Pro Substanz wurde für jeden Testkeim und jede zu prüfende Testzeit ein separater Ansatz angeimpft, d.h.10 Testsubstanzen zu jeweils 7 Testzeiten und 6 Testkeime (= insgesamt 502 Testansätze). […] Der Überstand wurde dekantiert und das Pellet in 5 ml NaCl Peptonpuffer aufgenommen und resuspendiert. Die Suspension wurde erneut 10 Minuten bei 3000 rpm abzentrifugiert und 5 ml NaCl-Peptonpuffer aufgenommen und mittels Vortex homogenisiert.
(§5) Die anschließende Keimzahlbestimmung erfolgte im Oberflächenverfahren durch Ausspiralisieren eines […] Aliquots auf Caso-Agar bzw. für H. influenzae auf Kochblut-Agar. Die Platten wurden bei 33±2°C für max. 4 Tage bebrütet. Die Nachweisgrenze des Verfahrens liegt bei 100 KBE/ml.

[2] = tested on: H.influenzae; assay: as above; details: Ausgangskeimzahl 2,8 x 10^5 KBE/ml
Source text: as §1, §2, §3, §4, §5

[3] = tested on: S.aureus; assay: as above; details: Ausgangskeimzahl 2,6 x 10^5 KBE/ml
Source text: as §1, §2, §3, §4, §5

[4] = tested on: Sc. pneumoniae; assay: as above; details: Ausgangskeimzahl 3,7 x 10^5 KBE/ml
Source text: as §1, §2, §3, §4, §5

[5] = tested on: P.aeruginosa; assay: as above; details: Ausgangskeimzahl 2,7 x 10^5 KBE/ml
Source text: as §1, §2, §3
(§6) Die verschiedenen Testsubstanzen a. bis j. wurden jeweils zu 5 ml in sterile Zentrifugenröhrchen abgefüllt und mit ca. 10^5 KBE^*/ml (* = koloniebildende Einheiten) der oben genannten Testkeime kontaminiert. Pro Substanz wurde für jeden Testkeim und jede zu prüfende Testzeit ein separater Ansatz angeimpft, d.h.10 Testsubstanzen zu jeweils 7 Testzeiten und 6 Testkeime (= insgesamt 502 Testansätze). Nach 2, 6, 8, 24, 32, 48 und 72 Stunden wurde dann der jeweilige Testansatz 10 Minuten bei 3000 rpm abzentrifugiert. Der Überstand wurde dekantiert und das Pellet in 5 ml NaCl Peptonpuffer aufgenommen und resuspendiert. Die Suspension wurde erneut 10 Minuten bei 3000 rpm abzentrifugiert und 5 ml NaCl-Peptonpuffer aufgenommen und mittels Vortex homogenisiert.
as §5

[6] = tested on: S.epidermidis; assay: as above; details: Ausgangskeimzahl 2,1 x 10^5 KBE/ml
Source text: as §1, §2, §3, §6, §5

[7] = tested on: E.coli; assay: Qualitative examination: enrichment of the inoculated test preparation in broth
Source text: as §1, §2, §4
(§7) Jeweils 2 ml der Testansätze wurden in 20 ml Caso-Bouillon oder für H. influenzae, in Fildes-Medium der Firma Becton Dickinson, ARt. Nr. 0349-739, angereichert und ebenfalls maximal 4 Tage bei 33± 2°C bebrütet. Ein negatives Ergebnis der Anreicherung belegt die Elimination der inokulierten Keime.

[8] = tested on: S.aureus; assay: as above
Source text: as §1, §2, §4, §7

[9] = tested on: S.epidermidis; assay: as above
Source text: as §1, §2, §4, §7

[10] = tested on: Sc. pneumoniae; assay: as above
Source text: as §1, §2, §4, §7

[11] = tested on: P.aeruginosa; assay: as above
Source text: as §1, §2, §6, §7

## Benzalkoniumchlorid [Benzalkoniumchlorid 0,006 Gew.-%]
[1]; 2 h after inoculation
  Ergebnis der Reisolierung (in KBE/ml): <100 KBE/ml
[1]; 4 h after inoculation
  Ergebnis der Reisolierung (in KBE/ml): <100 KBE/ml
[1]; 6 h after inoculation
  Ergebnis der Reisolierung (in KBE/ml): <100 KBE/ml
[1]; 8 h after inoculation
  Ergebnis der Reisolierung (in KBE/ml): <100 KBE/ml
[1]; 24 h after inoculation
  Ergebnis der Reisolierung (in KBE/ml): <100 KBE/ml
[1]; 32 h after inoculation
  Ergebnis der Reisolierung (in KBE/ml): <100 KBE/ml
[1]; 48 h after inoculation
  Ergebnis der Reisolierung (in KBE/ml): <100 KBE/ml
[1]; 72 h after inoculation
  Ergebnis der Reisolierung (in KBE/ml): <100 KBE/ml
[2]; 2 h after inoculation
  Ergebnis der Reisolierung (in KBE/ml): <100 KBE/ml
[2]; 4 h after inoculation
  Ergebnis der Reisolierung (in KBE/ml): <100 KBE/ml
[2]; 6 h after inoculation
  Ergebnis der Reisolierung (in KBE/ml): <100 KBE/ml
[2]; 8 h after inoculation
  Ergebnis der Reisolierung (in KBE/ml): <100 KBE/ml
[2]; 24 h after inoculation
  Ergebnis der Reisolierung (in KBE/ml): <100 KBE/ml
[2]; 32 h after inoculation
  Ergebnis der Reisolierung (in KBE/ml): <100 KBE/ml
[2]; 48 h after inoculation
  Ergebnis der Reisolierung (in KBE/ml): <100 KBE/ml
[2]; 72 h after inoculation
  Ergebnis der Reisolierung (in KBE/ml): <100 KBE/ml
[3]; 2 h after inoculation
  Ergebnis der Reisolierung (in KBE/ml): <100 KBE/ml
[3]; 4 h after inoculation
  Ergebnis der Reisolierung (in KBE/ml): <100 KBE/ml
[3]; 6 h after inoculation
  Ergebnis der Reisolierung (in KBE/ml): <100 KBE/ml
[3]; 8 h after inoculation
  Ergebnis der Reisolierung (in KBE/ml): <100 KBE/ml
[3]; 24 h after inoculation
  Ergebnis der Reisolierung (in KBE/ml): <100 KBE/ml
[3]; 32 h after inoculation
  Ergebnis der Reisolierung (in KBE/ml): <100 KBE/ml
[3]; 48 h after inoculation
  Ergebnis der Reisolierung (in KBE/ml): <100 KBE/ml
[3]; 72 h after inoculation
  Ergebnis der Reisolierung (in KBE/ml): <100 KBE/ml
[4]; 2 h after inoculation
  Ergebnis der Reisolierung (in KBE/ml): <100 KBE/ml
[4]; 4 h after inoculation
  Ergebnis der Reisolierung (in KBE/ml): <100 KBE/ml
[4]; 6 h after inoculation
  Ergebnis der Reisolierung (in KBE/ml): <100 KBE/ml
[4]; 8 h after inoculation
  Ergebnis der Reisolierung (in KBE/ml): <100 KBE/ml
[4]; 24 h after inoculation
  Ergebnis der Reisolierung (in KBE/ml): <100 KBE/ml
[4]; 32 h after inoculation
  Ergebnis der Reisolierung (in KBE/ml): <100 KBE/ml
[4]; 48 h after inoculation
  Ergebnis der Reisolierung (in KBE/ml): <100 KBE/ml
[4]; 72 h after inoculation
  Ergebnis der Reisolierung (in KBE/ml): <100 KBE/ml
[5]; 2 h after inoculation
  Ergebnis der Reisolierung (in KBE/ml): <100 KBE/ml
[5]; 4 h after inoculation
  Ergebnis der Reisolierung (in KBE/ml): <100 KBE/ml
[5]; 6 h after inoculation
  Ergebnis der Reisolierung (in KBE/ml): <100 KBE/ml
[5]; 8 h after inoculation
  Ergebnis der Reisolierung (in KBE/ml): <100 KBE/ml
[5]; 24 h after inoculation
  Ergebnis der Reisolierung (in KBE/ml): <100 KBE/ml
[5]; 32 h after inoculation
  Ergebnis der Reisolierung (in KBE/ml): <100 KBE/ml
[5]; 48 h after inoculation
  Ergebnis der Reisolierung (in KBE/ml): <100 KBE/ml
[5]; 72 h after inoculation
  Ergebnis der Reisolierung (in KBE/ml): <100 KBE/ml
[6]; 2 h after inoculation
  Ergebnis der Reisolierung (in KBE/ml): <100 KBE/ml
[6]; 4 h after inoculation
  Ergebnis der Reisolierung (in KBE/ml): <100 KBE/ml
[6]; 6 h after inoculation
  Ergebnis der Reisolierung (in KBE/ml): <100 KBE/ml
[6]; 8 h after inoculation
  Ergebnis der Reisolierung (in KBE/ml): <100 KBE/ml
[6]; 24 h after inoculation
  Ergebnis der Reisolierung (in KBE/ml): <100 KBE/ml
[6]; 32 h after inoculation
  Ergebnis der Reisolierung (in KBE/ml): <100 KBE/ml
[6]; 48 h after inoculation
  Ergebnis der Reisolierung (in KBE/ml): <100 KBE/ml
[6]; 72 h after inoculation
  Ergebnis der Reisolierung (in KBE/ml): <100 KBE/ml
[7]; 2 h after inoculation
  Ergebnis der Reisolierung qualitiativ (+/-) nach Anreicherung: -
[7]; 4 h after inoculation
  Ergebnis der Reisolierung qualitiativ (+/-) nach Anreicherung: -
[7]; 6 h after inoculation
  Ergebnis der Reisolierung qualitiativ (+/-) nach Anreicherung: -
[7]; 8 h after inoculation
  Ergebnis der Reisolierung qualitiativ (+/-) nach Anreicherung: -
[7]; 24 h after inoculation
  Ergebnis der Reisolierung qualitiativ (+/-) nach Anreicherung: -
[7]; 32 h after inoculation
  Ergebnis der Reisolierung qualitiativ (+/-) nach Anreicherung: -
[7]; 48 h after inoculation
  Ergebnis der Reisolierung qualitiativ (+/-) nach Anreicherung: -
[7]; 72 h after inoculation
  Ergebnis der Reisolierung qualitiativ (+/-) nach Anreicherung: -
[8]; 2 h after inoculation
  Ergebnis der Reisolierung qualitiativ (+/-) nach Anreicherung: -
[8]; 4 h after inoculation
  Ergebnis der Reisolierung qualitiativ (+/-) nach Anreicherung: -
[8]; 6 h after inoculation
  Ergebnis der Reisolierung qualitiativ (+/-) nach Anreicherung: -
[8]; 8 h after inoculation
  Ergebnis der Reisolierung qualitiativ (+/-) nach Anreicherung: -
[8]; 24 h after inoculation
  Ergebnis der Reisolierung qualitiativ (+/-) nach Anreicherung: -
[8]; 32 h after inoculation
  Ergebnis der Reisolierung qualitiativ (+/-) nach Anreicherung: -
[8]; 48 h after inoculation
  Ergebnis der Reisolierung qualitiativ (+/-) nach Anreicherung: -
[8]; 72 h after inoculation
  Ergebnis der Reisolierung qualitiativ (+/-) nach Anreicherung: -
[9]; 2 h after inoculation
  Ergebnis der Reisolierung qualitiativ (+/-) nach Anreicherung: -
[9]; 4 h after inoculation
  Ergebnis der Reisolierung qualitiativ (+/-) nach Anreicherung: -
[9]; 6 h after inoculation
  Ergebnis der Reisolierung qualitiativ (+/-) nach Anreicherung: -
[9]; 8 h after inoculation
  Ergebnis der Reisolierung qualitiativ (+/-) nach Anreicherung: -
[9]; 24 h after inoculation
  Ergebnis der Reisolierung qualitiativ (+/-) nach Anreicherung: -
[9]; 32 h after inoculation
  Ergebnis der Reisolierung qualitiativ (+/-) nach Anreicherung: -
[9]; 48 h after inoculation
  Ergebnis der Reisolierung qualitiativ (+/-) nach Anreicherung: -
[9]; 72 h after inoculation
  Ergebnis der Reisolierung qualitiativ (+/-) nach Anreicherung: -
[10]; 2 h after inoculation
  Ergebnis der Reisolierung qualitiativ (+/-) nach Anreicherung: -
[10]; 4 h after inoculation
  Ergebnis der Reisolierung qualitiativ (+/-) nach Anreicherung: -
[10]; 6 h after inoculation
  Ergebnis der Reisolierung qualitiativ (+/-) nach Anreicherung: -
[10]; 8 h after inoculation
  Ergebnis der Reisolierung qualitiativ (+/-) nach Anreicherung: -
[10]; 24 h after inoculation
  Ergebnis der Reisolierung qualitiativ (+/-) nach Anreicherung: -
[10]; 32 h after inoculation
  Ergebnis der Reisolierung qualitiativ (+/-) nach Anreicherung: -
[10]; 48 h after inoculation
  Ergebnis der Reisolierung qualitiativ (+/-) nach Anreicherung: -
[10]; 72 h after inoculation
  Ergebnis der Reisolierung qualitiativ (+/-) nach Anreicherung: -
[11]; 2 h after inoculation
  Ergebnis der Reisolierung qualitiativ (+/-) nach Anreicherung: -
[11]; 4 h after inoculation
  Ergebnis der Reisolierung qualitiativ (+/-) nach Anreicherung: -
[11]; 6 h after inoculation
  Ergebnis der Reisolierung qualitiativ (+/-) nach Anreicherung: -
[11]; 8 h after inoculation
  Ergebnis der Reisolierung qualitiativ (+/-) nach Anreicherung: -
[11]; 24 h after inoculation
  Ergebnis der Reisolierung qualitiativ (+/-) nach Anreicherung: -
[11]; 32 h after inoculation
  Ergebnis der Reisolierung qualitiativ (+/-) nach Anreicherung: -
[11]; 48 h after inoculation
  Ergebnis der Reisolierung qualitiativ (+/-) nach Anreicherung: -
[11]; 72 h after inoculation
  Ergebnis der Reisolierung qualitiativ (+/-) nach Anreicherung: -
